Experimental data taken from patent US12011444B2, “N-substituted indole derivatives as PGE2 receptor modulators” (Idorsia Pharmaceuticals Ltd, priority 2015, dated 2024).

Key:
EP4 = EP4 (Homo sapiens (Human), UniProt P35408); test: hEP4 cAMP assay (BT549 breast cancer cells, HTRF cAMP); format: cell-based; conditions: antagonistic activity; mean values where measured multiple times
Method: Plate is pre-incubated 45 minutes at room temperature. Subsequently, 2.5 microliters of PGE2 (final conc. 6 nM) are transferred into the assay plate. Plate is incubated 30 minutes at room temperature.

EP2 = EP2 (Homo sapiens (Human), UniProt P43116);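 note: antagonism of PGE2-stimulated cAMP accumulation in SF295 human glioblastoma cells with endogenous EP2, cAMP read by HTRF, expressed relative to DMSO control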
EP2, sequence (P43116 whole entry): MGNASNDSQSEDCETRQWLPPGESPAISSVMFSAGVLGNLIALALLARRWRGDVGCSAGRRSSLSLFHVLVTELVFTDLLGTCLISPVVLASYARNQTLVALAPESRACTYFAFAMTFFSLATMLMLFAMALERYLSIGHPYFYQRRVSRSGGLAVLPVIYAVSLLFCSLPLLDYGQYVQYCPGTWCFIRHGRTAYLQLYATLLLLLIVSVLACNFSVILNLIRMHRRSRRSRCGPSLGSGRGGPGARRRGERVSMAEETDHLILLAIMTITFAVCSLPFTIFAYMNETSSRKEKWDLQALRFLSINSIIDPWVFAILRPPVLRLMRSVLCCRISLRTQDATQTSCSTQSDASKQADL

PTGER2 (EP2) = PTGER2 (EP2) (Homo sapiens (Human), UniProt P43116); test: hEP2 b-arrestin assay (PathHunter HEK 293 PTGER2 b-arrestin cells); format: cell-based; conditions: antagonistic activity on hEP2; mean where measured multiple times
PTGER2 (EP2), sequence (P43116 whole entry): as above
Procedure, shortened: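 Readout is β-galactosidase complementation luminescence, expressed as percent of DMSO control (duplicates). PathHunter HEK293 EP2/β-arrestin 2 cells, grown 24 h, received compound for 15 min at 37 °C before a 120 min challenge with PGE2 at 5 μM final, followed by 1 h detection at room temperature.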

PTRGER4 (EP4) = PTRGER4 (EP4) (Homo sapiens (Human), UniProt P35408); test: hEP4 b-arrestin assay (PathHunter HEK 293 PTGER4 b-arrestin cells); format: cell-based; conditions: antagonistic activity on hEP4; mean where measured multiple times
PTRGER4 (EP4), sequence (P35408 whole entry, looked up, the tested form may be a part): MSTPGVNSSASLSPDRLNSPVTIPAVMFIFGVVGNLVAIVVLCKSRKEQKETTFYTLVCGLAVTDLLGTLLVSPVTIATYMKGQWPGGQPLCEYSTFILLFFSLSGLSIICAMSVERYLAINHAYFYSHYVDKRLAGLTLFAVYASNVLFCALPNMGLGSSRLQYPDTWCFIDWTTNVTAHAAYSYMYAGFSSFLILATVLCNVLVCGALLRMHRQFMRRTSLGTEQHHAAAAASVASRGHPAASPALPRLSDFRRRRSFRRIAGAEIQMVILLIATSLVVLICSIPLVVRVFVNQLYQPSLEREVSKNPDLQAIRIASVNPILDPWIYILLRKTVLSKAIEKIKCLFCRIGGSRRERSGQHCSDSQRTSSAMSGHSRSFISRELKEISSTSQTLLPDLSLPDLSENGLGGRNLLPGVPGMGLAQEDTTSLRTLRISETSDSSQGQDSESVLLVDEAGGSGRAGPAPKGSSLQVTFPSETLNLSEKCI
Procedure, shortened: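 Antagonist mode: compound is given 15 min at 37 °C, then 20 nM (final) PGE2 for 120 min, in HEK293 cells stably expressing EP4 fused to ProLink and β-arrestin 2 fused to EA. Recruitment read as β-gal luminescence after 1 h reagent at room temperature, as percent of DMSO control.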

EP4, sequence (P35408 whole entry): as the sequence (P35408 whole entry, looked up, the tested form may be a part) above

Row | Structure (SMILES) | IC50 (EP4) [nM] | IC50 (EP2) [nM] | IC50 (PTGER2 (EP2)) [nM] | IC50 (PTRGER4 (EP4)) [nM]
1 | COc1cc(-c2cc(NCCn3c(C)cc4ccccc43)ncn2)ccc1-c1nnn[nH]1 [Example 746, {6-[3-Methoxy-4-(1H-tetrazol-5-yl)-phenyl]-pyrimidin-4-yl}-[2-(2-methyl-indol-1-yl)-ethyl]-amine] | 869 | 10 |  | 
2 | COc1cc(-c2cc(NCCn3c(C)cc4c(F)ccc(F)c43)ncn2)ccc1-c1nnn[nH]1 [Example 747, [2-(4,7-Difluoro-2-methyl-indol-1-yl)-ethyl]-{6-[3-methoxy-4-(1H-tetrazol-5-yl)-phenyl]-pyrimidin-4-yl}-amine] | 318 | 3 |  | 
3 | Cc1cc2ccccc2n1CCNc1cc(-c2ccc(-c3nnc(N)s3)cc2)ncn1 [compound 363] |  |  | 1 | 474
4 | Cc1cc2c(F)ccc(F)c2n1CCNc1cc(-c2ccc(C(=O)O)c(CCC(C)C)c2)ncn1 [compound 367, 4-{6-[2-(4,7-Difluoro-2-methyl-indol-1-yl)-ethylamino]-pyrimidin-4-yl}-2-(3-methyl-butyl)-benzoic acid] |  |  | 14 | 961
5 | Cc1ccc(Cl)c2c1cc(C)n2CCNc1cc(-c2ccc(C(=O)O)c(SCC(C)C)c2)ncn1 [compound 368] |  |  | 63 | 360
6 | Cc1ccc(F)c2c1cc(C)n2CCNc1cc(-c2ccc(C(=O)O)c(CCC(C)C)c2)ncn1 [compound 369] |  |  | 87 | 238
7 | Cc1cc2c(Cl)ccc(Cl)c2n1CCNc1cc(-c2ccc(C(=O)O)c(SCC(C)C)c2)ncn1 [compound 370, 4-{6-[2-(4,7-Dichloro-2-methyl-indol-1-yl)-ethylamino]-pyrimidin-4-yl}-2-isobutylsulfanyl-benzoic acid] |  |  | 35 | 992
8 | CCCSc1cc(-c2cc(NCCn3c(C)cc4c(C)c(F)cc(Cl)c43)ncn2)ccc1C(=O)O [compound 371] |  |  | 70 | 875
9 | CCNC(=O)Nc1ccc(-c2cc(NCCn3c(C)cc4c(C)ccc(F)c43)ncn2)cc1OC [compound 374] |  |  | 53 | 67
10 | CCNC(=O)Nc1ccc(-c2cc(NCCn3c(C)cc4c(OC)cccc43)ncn2)cc1OC [compound 375, 1-Ethyl-3-(2-methoxy-4-{6-[2-(4-methoxy-2-methyl-indol-1-yl)-ethylamino]-pyrimidin-4-yl}-phenyl)-urea] |  |  | 20 | 57
11 | COc1ccc(F)c2c1cc(C)n2CCNc1cc(-c2ccc3nccnc3c2)ncn1 [compound 376] |  |  | 50 | 184
12 | Cc1ccc(F)c2c1cc(C)n2CCNc1cc(-c2ccc(C3(C(=O)O)CC3)c(F)c2)ncn1 [compound 378] |  |  | 340 | 449
13 | Cc1ccc(F)c2c1cc(C)n2CCNc1cc(-c2ccc(S(N)(=O)=O)c(C(F)(F)F)c2)ncn1 [compound 379] |  |  | 63 | 354
14 | COc1cccc2c1cc(C)n2CCNc1cc(-c2ccc(S(N)(=O)=O)c(C(F)(F)F)c2)ncn1 [compound 380] |  |  | 58 | 677
15 | COc1ccc(F)c2c1cc(C)n2CCNc1cc(-c2ccc3ccncc3c2)ncn1 [compound 383] |  |  | 17 | 147
16 | COc1ccc(F)c2c1cc(C)n2CCNc1cc(-c2ccc3ncccc3c2)ncn1 [compound 384] |  |  | 13 | 60
17 | COc1ccc(F)c2c1cc(C)n2CCNc1cc(-c2ccc(C3(N)CC3)cc2)ncn1 [compound 385] |  |  | 183 | 468
18 | CNc1nnc(-c2ccc(-c3cc(NCCn4c(C)cc5ccccc54)ncn3)cc2)s1 [compound 387] |  |  | 2 | 556
19 | COc1ccc(Cl)c2c1cc(C)n2CCNc1cc(-c2ccc3c(C(=O)O)n[nH]c3c2)ncn1 [compound 388] |  |  | 34 | 963
20 | COc1ccc(F)c2c1cc(C)n2CCNc1cc(-c2ccc3c(C(=O)O)n[nH]c3c2)ncn1 [compound 389] |  |  | 26 | 734
21 | CCNc1cc(-c2cc(NCCn3c(C)cc4c(C)ccc(F)c43)ncn2)cc(F)c1C(=O)O [compound 392] |  |  | 7 | 97
22 | COc1ccc(F)c2c1cc(C)n2CCNc1cc(-c2ccc(C(=O)O)c([N+](=O)[O-])c2)ncn1 [compound 394] |  |  | 15 | 296

Second part, the compound after the results:

Row | IC50 (EP4) [nM] | IC50 (EP2) [nM] | IC50 (PTGER2 (EP2)) [nM] | IC50 (PTRGER4 (EP4)) [nM] | Structure (SMILES)
23 |  |  | 3 | 281 | CCNc1cc(-c2cc(NCCn3c(C)cc4c(OC)cccc43)ncn2)cc(Cl)c1C(=O)O [compound 362, 2-Chloro-6-ethylamino-4-{6-[2-(4-methoxy-2-methyl-indol-1-yl)-ethylamino]-pyrimidin-4-yl}-benzoic acid]
24 |  |  | 84 | 543 | CCOc1cc(-c2cc(NCCn3c(C)cc4c(OC)c(F)cc(F)c43)ncn2)ccc1C(=O)O [compound 364]
25 |  |  | 25 | 409 | CCOc1cc(-c2cc(NCCn3c(C)cc4c(OC)ccc(Cl)c43)ncn2)cc(C)c1C(=O)O [compound 365, 4-{6-[2-(7-Chloro-4-methoxy-2-methyl-indol-1-yl)-ethylamino]-pyrimidin-4-yl}-2-ethoxy-6-methyl-benzoic acid]
26 |  |  | 22 | 262 | CCOc1cc(-c2cc(NCCn3c(C)cc4c(OC)ccc(F)c43)ncn2)cc(C)c1C(=O)O [compound 366, 2-Ethoxy-4-{6-[2-(7-fluoro-4-methoxy-2-methyl-indol-1-yl)-ethylamino]-pyrimidin-4-yl}-6-methyl-benzoic acid]
27 |  |  | 260 | 381 | CCCc1cc(-c2cc(NCCn3c(C)cc4cc(OC)cc(F)c43)ncn2)cc(Cl)c1C(=O)O [compound 372]
28 |  |  | 79 | 183 | CCCc1cc(-c2cc(NCCn3c(C)cc4c(OC)c(F)cc(F)c43)ncn2)ccc1C(=O)O [compound 373]
29 |  |  | 51 | 697 | CCOc1cc(-c2cc(NCCn3c(C)cc4c(OC)ccc(F)c43)ncn2)ccc1S(N)(=O)=O [compound 377]
30 |  |  | 3 | 84 | CCNc1cc(-c2cc(NCCn3c(C)cc4c(OC)ccc(F)c43)ncn2)cc(Cl)c1C(=O)O [compound 381, 2-Chloro-6-ethylamino-4-{6-[2-(7-fluoro-4-methoxy-2-methyl-indol-1-yl)-ethylamino]-pyrimidin-4-yl}-benzoic acid]
31 |  |  | 27 | 359 | COc1cc(F)cc2c1cc(C)n2CCNc1cc(-c2ccc(C(=O)O)c(C3CC3)c2)ncn1 [compound 382]
32 |  |  | 40 | 559 | COc1cccc2c1cc(C)n2CCNc1cc(-c2ccc(C3(C(=O)O)CC3)c(F)c2)ncn1 [compound 386]
33 |  |  | 38 | 146 | Cc1cc(F)cc2c1cc(C)n2CCNc1cc(-c2cc(Cl)c(C(=O)O)c(Cl)c2)ncn1 [compound 390]
34 |  |  | 2 | 3 | CCOc1cc(-c2cc(NCCn3c(C#N)cc4c(OC)cc(F)cc43)ncn2)sc1C(=O)O [compound 391]
35 |  |  | 9 | 745 | CCCc1cc(-c2cc(NCCn3c(C)cc4c(C#N)ccc(F)c43)ncn2)ccc1C(=O)O [compound 393]
36 |  |  | 24 | 137 | CCOc1cc(-c2cc(NCCn3c(C#N)cc4c(C)cc(F)cc43)ncn2)ccc1C(=O)O [compound 395]
